Converted amounts (≈) assume the structure as drawn.
Assays:
Assay type in all cases: cell-based
[1] = system: Staphylococcus aureus 209-P; assay: Antibacterial Activity (MIC) against Staphylococcus aureus 209-P
Escherichia coli NIHJ = assay: Antibacterial Activity (MIC) against Escherichia coli NIHJ
[2] = system: Klebsiella pneumoniae EK-6; assay: Antibacterial Activity (MIC) against Klebsiella pneumoniae EK-6; settings: EK6
Proteus morganii EP-14 = assay: Antibacterial Activity (MIC) against Proteus morganii EP-14; settings: Morganella morganii, EP14
[3] = system: Pseudomonas aeruginosa EP-172; assay: Antibacterial Activity (MIC) against Pseudomonas aeruginosa EP-172; settings: EP172
[4] = system: Serratia marcescens ES-75; assay: Antibacterial Activity (MIC) against Serratia marcescens ES-75; settings: ES75

| MIC [1] [µg/mL] | MIC (Escherichia coli NIHJ) [µg/mL] | MIC [2] [µg/mL] | MIC (Proteus morganii EP-14) [µg/mL] | MIC [3] [µg/mL] | MIC [4] [µg/mL] | SMILES |
| --- | --- | --- | --- | --- | --- | --- |
| 6.25 (≈ 7.19 µM) | 0.4 (≈ 0.46 µM) | ≥ 0.05 | 1.56 (≈ 1.79 µM) | 0.8 (≈ 0.92 µM) | ≥ 0.05 | CCOC(=O)Oc1cc2occ(C(=O)N[C@@H](C(=O)N[C@@H]3C(=O)N4C(C(=O)O)=C(CSc5nnnn5CC(=O)O)CS[C@H]34)c3ccc(O)cc3)c(=O)c2cc1OC(=O)OCC [Preparatory Example 2 (A), 7β-[D-2-{6,7-bis(ethoxycarbonyloxy)chromone-3-carboxamido}-2-(4-hydroxyphenyl)acetamido]-3-[(1-carboxymethyl-5-tetrazolyl)thiomethyl]-3-cephem-4-carboxylic acid] |
| 3.13 (≈ 4.31 µM) | 0.4 (≈ 0.551 µM) | ≥ 0.1 | 12.5 (≈ 17.2 µM) | 0.8 (≈ 1.1 µM) | ≥ 0.1 | O=C(O)Cn1nnnc1SCC1=C(C(=O)O)N2C(=O)[C@@H](NC(=O)[C@H](NC(=O)c3coc4cc(O)c(O)cc4c3=O)c3ccc(O)cc3)[C@H]2SC1 [Preparatory Example 2 (B), 7β-[D-2-(6,7-Dihydroxychromone-3-carboxyamido)-2-(4-hydroxyphenyl)acetamido]-3-[(1-carboxymethyl-5-tetrazolyl)thiomethyl]-cephem-4-carboxylic acid] |

— patent publication US4331606A, “N-(Substituted chromone-3-carbonyl)-phenylglycine derivatives” (Eisai Co., Ltd., priority 1980, dated 1982)
